Measured values: patent US20150206621A1, “Electrical Insulator Comprising An Organofluorine Compound And Method For Producing It” (priority 2012, published 2015)

Assay: toxicity / lethal concentration LC50
Assay type: in vivo

Row | Structure (SMILES) | risk for human toxicity (in words) (concluded from available results of mammalian HFC (hydrofluorocarbon) tests) | toxicity (in words) (in vivo) | LC50 (in vivo)
1 | FC(F)(F)COC(F)(F)F [2,2,2-trifluoroethyl-trifluoromethyl ether] | low risk for human toxicity | – | –
2 | O=C(C(F)(F)F)C(F)(C(F)(F)F)C(F)(F)F [C5-ketone, 1,1,1,3,4,4,4-heptafluoro-3-(trifluoromethyl)butan-2-one] | – | practically non-toxic | –
3 | O=C(C(F)(F)C(F)(F)F)C(F)(C(F)(F)F)C(F)(F)F [C6-ketone, 1,1,1,2,4,4,5,5,5-Nonafluoro-2-(trifluoromethyl)pentan-3-one] | – | non-toxic | about 100'000 ppm
